Results: publication PMC9489722, “Identification and development of a subtype-selective allosteric AKT inhibitor suitable for clinical development” (Scientific Reports, 2022)
Like-named read-outs stand apart in the source and are kept apart here.

What was measured:
[1] = test system: ∆AKT1; test: PH domain null AKT1 biochemical kinase assay (FP iMAP)
Procedure: (§1) Biochemical analysis was performed using kinases obtained from Millipore (AKT1, ∆AKT1, ∆AKT2, ∆AKT3) and Signal Chem (AKT2 and AKT3). The specific activity of AKT 1,2 and 3 was determined to be 114 nmol/min/mg, 44 nmol/min/mg and 200 nmol/min/mg respectively as per activity assay protocol. ALM301 was profiled using the Fluorescent Polarisation (FP) iMAP Screening Express kit (Molecular Devices) using the FAM-Crosstide substrate [5FAM-[…]-OH] (Molecular Devices) against the three isoforms of AKT and their PH domain null mutants. Compounds were dissolved in DMSO prior to screening at 14 point titration series in the range (50 µM–50 pM). Fluorescence polarisation was measured using a Biotek Synergy 4 Hybrid microplate reader. Percentage inhibition of kinase activity was calculated and IC50 values derived using non-linear regression on GraphPad Prism. Competition of ALM301 with ATP was determined using AKT1 under increasing ATP concentrations up to 1000 µM.

[2] = target: CYP 2D6 (Homo sapiens, UniProt P10635); test: CYP2D6 inhibition; format: in vitro ADME
[3] = target: T1, AKT1 (Homo sapiens, UniProt P31749); test: AKT1 biochemical kinase assay (FP iMAP)
T1 construct: purchased Millipore
Procedure: Biochemical analysis was performed using kinases obtained from Millipore (AKT1, ∆AKT1, ∆AKT2, ∆AKT3) and Signal Chem (AKT2 and AKT3). […] (Molecular Devices) against the three isoforms of AKT and their PH domain null mutants. Compounds were dissolved in DMSO prior to screening at 14 point titration series in the range (50 µM–50 pM). Fluorescence polarisation was measured using a Biotek Synergy 4 Hybrid microplate reader. Percentage inhibition of kinase activity was calculated and IC50 values derived using non-linear regression on GraphPad Prism. Competition of ALM301 with ATP was determined using AKT1 under increasing ATP concentrations up to 1000 µM.

[4] = test system: ∆AKT3; test: PH domain null AKT3 biochemical kinase assay (FP iMAP)
Procedure: as §1

[5] = In vitro microsomal stability, human; format: in vitro ADME; conditions: pH 7.4; human liver microsomes; read-out: human LM CLint
Procedure: Compounds (final concentration = 1 µM; final DMSO concentration = 0.1%) were incubated in 0.1 M phosphate buffer at pH 7.4 with liver microsomes (human, mouse, rat or dog; 0.5 mg of protein/mL) at 37 °C. Reactions were started by addition of NADPH in 0.1 M phosphate buffer pH 7.4 (final concentration 1 mM). Reactions were quenched by addition of ice-cold methanol and frozen. The supernatants were analysed by LC/MS/MS on a Waters Acquity I-Class coupled to a Waters Xevo TQD mass spectrometer. A Waters BEH C18 2.1 × 50 mm 1.7 µm column was used and mobile phases consisted of water and methanol containing 0.1% formic acid as modifier. Analysis was by multiple reaction monitoring and conditions were optimised for each test compound.

[6] = target: T1, AKT1; test: SelectScreen kinase selectivity profiling, AKT1; format: biochemical; conditions: read-out: % inhibition @ 10 µM, AKT1; 10 µM fixed concentration
Procedure: (§2) Off-target kinase activity was performed using the SelectScreen kinase profiling service against either mini 50 kinase or full 450 kinase panels using the Z’lyte and Adapta kinase activity platforms (performed by Thermofisher).

[7] = test system: panel of over 450 kinases; test: SelectScreen kinase selectivity profiling, full panel; format: biochemical
Procedure: as §2

[8] = test system: MCF-7 cells; test: Clonogenic cell survival assay; format: cell-based; conditions: Homo sapiens, MCF7; MCF-7, concentration range 0.001–10 µM
[9] = test system: pAKT in MCF-7 cells; test: Western blot of pAKT and pGSK3β in MCF-7 cells; format: cell-based; conditions: 1 µM, observed from 1 h after treatment
Procedure: AKT inhibitor treated cell lysates were obtained using RIPA lysis buffer supplemented with protease and phosphatase inhibitor tablets (Roche). Protein samples (30 µg/lane) were run by SDS-PAGE and transferred to Hybond C extra nitrocellulose membranes (Amersham Biosciences) before incubation with the following primary antibodies; pAKT, total AKT, pGSK3β, total GSK3 β, p(Cell Signaling Technologies), Actin (Sigma) or Vinculin (Santa Cruz). Primary antibodies were diluted at 1:1000 (except Actin which was diluted 1:5000). Secondary antibodies were diluted 1:10,000. Blots were visualised using Amersham ECL plus western blot detection system (GE Healthcare) or Odyssey CLx system (LI-COR).

[10] = test system: pAKT^S473 in A549 tumours; test: PK/PD study in A549 lung cancer xenograft model; format: in vivo, mouse; conditions: single oral dose 10, 30 or 100 mg/kg
Procedure: In order to understand the relationship between ALM301 plasma exposure and in vivo AKT target engagement over time, a PK/PD study was carried out in a A549 lung cancer xenograft model. […] ALM301 plasma concentrations and levels of pAKT^S473 in tumours were measured using western blotting and immunohistochemistry (Fig. 4A, B and Supplementary Fig. S4A–C). […] Tumour sections were collected following one dose of either vehicle or 30 mg/kg of ALM301 at noted time intervals (1 h, 2 h, 4 h, 8 h, 24 h). Tissue sections were subsequently stained with pAKT antibody (brown) staining and scored for pAKT staining using a scale of 1–4 (low to high) (Fig. 4B).
For pharmacokinetic/pharmacodynamic (PK/PD) studies in A549 lung cancer xenografts, 150 male BALB/c nude mice aged 6–8 weeks and weighing approximately 18–22 g were inoculated with 1 × 10^7 A549 tumour cells (ATCC) in 0.1 mL of PBS with Matrigel (1:1) subcutaneously into the right flank. Once the mean tumour size reached 150–250 mm^3, the mice were randomised into treatment groups (18 mice per group) using a randomised block design (first, experimental animals are divided into homogeneous blocks according to their initial tumour volume; secondly, within each block, randomisation of animals to treatment groups was conducted so that each animal had the same probability of being assigned to a given treatment, thereby reducing systematic bias). Group sizes were devised based on previous pilot studies using a minimal numbers approach of n = 3 tumours per time-point (6 time-points per dose level). […] Tumour size was measured twice weekly in two dimensions using a caliper, and the volume expressed in mm^3 using the formula: V = 0.5 (a × b^2), where a and b are the long and short diameters of the tumour, respectively.

T1 sequence (P31749 whole entry): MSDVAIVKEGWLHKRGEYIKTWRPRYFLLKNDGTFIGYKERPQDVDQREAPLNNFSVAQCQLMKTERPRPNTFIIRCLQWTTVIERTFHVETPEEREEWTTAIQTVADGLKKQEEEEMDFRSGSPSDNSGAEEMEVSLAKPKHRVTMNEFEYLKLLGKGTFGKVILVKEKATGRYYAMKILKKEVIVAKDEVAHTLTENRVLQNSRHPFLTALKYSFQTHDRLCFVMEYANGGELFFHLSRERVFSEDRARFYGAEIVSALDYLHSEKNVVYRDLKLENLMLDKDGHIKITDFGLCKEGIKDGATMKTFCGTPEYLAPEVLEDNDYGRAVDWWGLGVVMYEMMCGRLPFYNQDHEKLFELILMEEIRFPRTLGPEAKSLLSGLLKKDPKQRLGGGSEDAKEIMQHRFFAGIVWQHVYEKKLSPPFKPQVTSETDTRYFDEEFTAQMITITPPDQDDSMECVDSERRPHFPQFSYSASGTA
Chain of CYP 2D6 (P10635 whole entry): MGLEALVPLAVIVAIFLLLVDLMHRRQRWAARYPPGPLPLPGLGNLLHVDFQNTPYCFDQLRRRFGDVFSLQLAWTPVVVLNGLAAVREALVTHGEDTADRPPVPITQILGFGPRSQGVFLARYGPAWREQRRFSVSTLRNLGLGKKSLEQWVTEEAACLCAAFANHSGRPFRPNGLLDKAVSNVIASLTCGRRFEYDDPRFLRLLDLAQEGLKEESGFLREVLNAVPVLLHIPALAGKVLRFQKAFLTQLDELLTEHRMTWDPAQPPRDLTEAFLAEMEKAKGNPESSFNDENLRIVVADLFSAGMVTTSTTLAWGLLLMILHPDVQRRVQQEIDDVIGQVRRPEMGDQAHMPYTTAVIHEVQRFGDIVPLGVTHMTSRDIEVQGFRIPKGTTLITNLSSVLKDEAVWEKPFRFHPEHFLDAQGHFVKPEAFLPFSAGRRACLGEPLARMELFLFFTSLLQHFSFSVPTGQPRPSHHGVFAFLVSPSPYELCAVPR

**Q.** For `CCN1C(=O)COc2nc(-c3ccc([C@]4(N)C[C@@H](O)C4)cc3)c(-c3ccccc3)cc21` [ALM301, 6-(4-((1S,3S)-1-amino-3-hydroxycyclobutyl)phenyl)-1-ethyl-7-phenyl-1H-pyrido[2,3-b][1,4]oxazin-2(3H)-one], which “inhibition of truncated AKT1 lacking PH domain” value [1] is on record?
**A.** not inhibited

**Q.** What about the IC50 [2] of the same compound?
**A.** > 25000 nM

**Q.** What about the IC50 ([3]; ATP concentration 150 µM, read-out: IC50 vs. AKT1) of the same compound?
**A.** 121 nM

**Q.** And the IC50 ([3]; ATP concentration 500 µM, read-out: IC50 vs. AKT1)?
**A.** 157 nM

**Q.** What about the IC50 ([3]; ATP concentration 1000 µM, read-out: IC50 vs. AKT1) of the same compound?
**A.** 110 nM

**Q.** What about the IC50 ([3]; full length AKT1, read-out: IC50 full length AKT1) of the same compound?
**A.** 125 nM

**Q.** And the IC50 ([3]; read-out: AKT IC50, AKT1)?
**A.** 130 nM

**Q.** What about the “inhibition of truncated AKT3 lacking PH domain” value [4] of the same compound?
**A.** not inhibited

**Q.** What about the microsomal CLint at 1 µM [5] of the same compound?
**A.** 3.7 µL/min/mg

**Q.** And the inhibition at 10 µM [6]?
**A.** 95%

**Q.** What about the “inhibition versus the additional 21 PH domain containing kinases” value ([7]; 21 PH domain containing kinases assayed) of the same compound?
**A.** did not demonstrate any inhibition

**Q.** And the “selectivity against a panel of over 450 kinases” value ([7]; fixed concentration of 10 µM)?
**A.** highly selective

**Q.** What about the IC50 [8] of the same compound?
**A.** 100 nM

**Q.** And the “inhibition of AKT phosphorylation (western blot)” value [9]?
**A.** sustained up to 48 h

**Q.** And the “pAKT^S473 in tumours” value ([10]; all timepoints over 24 h, BALB/c mice bearing A549 xenografts)?
**A.** almost total abrogation

**Q.** What about the total plasma concentrations ([10]; mice bearing A549 xenografts) of the same compound?
**A.** dose-dependent increases
